Results from patent US20130131161A1, “METHODS AND COMPOSITIONS FOR CARDIOVASCULAR DISEASES AND CONDITIONS” (priority 2009, published 2013).
Values joined by “and” are separate entries in the source; they are usually repeats but may differ in a detail not shown here. Equal values may be shown once.

Test system: eNOS
Assay: eNOS protein abundance in HUVECs by immunochemical methods (Example 2)
Type: cell-based, human
Conditions: for eNOS protein abundance (mean ± sd): pg/ug total protein; for Fold difference eNOS protein abundance (mean ± sd): (LA-419 5 μM)/(control)
Description: eNOS Activity and Protein Abundance Measurements
Using immunochemical methods, there was no change in any condition in relation to eNOS protein abundance, Tables ss-L1.

CC(=O)SC1COC2C(O[N+](=O)[O-])COC12 (stereo not drawn) [LA-419, S-(6-Nitro-oxi-hexahydro-furo[3,2-b]furan-3-1-il)thioacetate]
eNOS protein abundance % Change (mean ± sd) (5 μM LA-419, Intron 4 variant b/a, a/a, c/c (n=14)): 0.32 (9.26) %
eNOS protein abundance % Change (mean ± sd) (5 μM LA-419, Intron 4 variant b/b (n=31)): −1.78 (6.88) %
eNOS protein abundance (mean ± sd) (5 μM LA-419, G894T + T786C G/G + T/C, n=8): 6.27 (1.56) pg/ug
eNOS protein abundance (mean ± sd) (5 μM LA-419, G894T + T786C G/G + T/T, n=18): 6.17 (1.24) pg/ug
eNOS protein abundance (mean ± sd) (5 μM LA-419, G894T + T786C G/T + C/C, n=1): 7.25 (0) pg/ug
eNOS protein abundance (mean ± sd) (5 μM LA-419, G894T + T786C G/T + T/C, n=13): 5.59 (1.08) pg/ug
eNOS protein abundance (mean ± sd) (5 μM LA-419, G894T + T786C G/T + T/T, n=4): 5.82 (1.49) pg/ug
eNOS protein abundance (mean ± sd) (5 μM LA-419, G894T + T786C T/T + C/C, n=3): 6.47 (1.34) pg/ug
eNOS protein abundance (mean ± sd) (5 μM LA-419, G894T + T786C T/T + T/C, n=2): 4.52 (0.30) pg/ug
eNOS protein abundance (mean ± sd) (5 μM LA-419, G894T G/G, n=26): 6.20 (1.31) pg/ug
eNOS protein abundance (mean ± sd) (5 μM LA-419, G894T G/T & T/T, n=23): 5.72 (1.20) pg/ug
eNOS protein abundance (mean ± sd) (5 μM LA-419, G894T G/T, n=18): 5.73 (1.17) pg/ug
eNOS protein abundance (mean ± sd) (5 μM LA-419, G894T T/T, n=5): 5.69 (1.44) pg/ug
eNOS protein abundance (mean ± sd) (5 μM LA-419, Genotype Combination, n=31 (title: Combination = G/G + T/T, G/G + T/C, G/G/+C/C, G/T + T/T, G/T + T/C, G/T + C/C, T/T + T/C)): 5.86 (1.30) pg/ug
eNOS protein abundance (mean ± sd) (5 μM LA-419, Genotype Reference, n=18 (title: Reference group = T/T + C/C)): 6.17 (1.24) pg/ug
eNOS protein abundance (mean ± sd) (5 μM LA-419, Intron 4 a/a, n=3): 7.17 (1.19) pg/ug
eNOS protein abundance (mean ± sd) (5 μM LA-419, Intron 4 b/a, a/a, c/c, n=14): 6.31 (1.50) pg/ug
eNOS protein abundance (mean ± sd) (5 μM LA-419, Intron 4 b/a, n=10): 5.95 (1.56) pg/ug
eNOS protein abundance (mean ± sd) (5 μM LA-419, Intron 4 b/b, n=31): 5.75 (1.13) pg/ug
eNOS protein abundance (mean ± sd) (5 μM LA-419, Intron 4 c/c, n=1): 7.39 (0) pg/ug
eNOS protein abundance (mean ± sd) (5 μM LA-419, T-786C CC, n=4): 6.67 (1.16) pg/ug
eNOS protein abundance (mean ± sd) (5 μM LA-419, T-786C T/C & C/C, n=27): 5.87 (1.30) pg/ug
eNOS protein abundance (mean ± sd) (5 μM LA-419, T-786C T/C, n=23): 5.73 (1.29) pg/ug
eNOS protein abundance (mean ± sd) (5 μM LA-419, T-786C T/T, n=22): 6.11 (1.26) pg/ug
eNOS protein abundance % Change (mean ± sd) (5 μM LA-419 vs control, n=2): −4.89 (0.49) %
eNOS protein abundance % Change (mean ± sd) (5 μM LA-419 vs control, G894T G/G, n=26): −1.07 (8.07) %
eNOS protein abundance % Change (mean ± sd) (5 μM LA-419 vs control, G894T G/T, n=18): −0.79 (7.54) %
eNOS protein abundance % Change (mean ± sd) (5 μM LA-419 vs control, G894T T/T, n=5): −1.54 (6.56) %
eNOS protein abundance % Change (mean ± sd) (5 μM LA-419 vs control, Intron 4 a/a, n=3): 1.11 (10.89) %
eNOS protein abundance % Change (mean ± sd) (5 μM LA-419 vs control, Intron 4 b/a, n=10): 0.68 (9.65) %
eNOS protein abundance % Change (mean ± sd) (5 μM LA-419 vs control, Intron 4 b/b, n=31): −1.78 (6.88) %
eNOS protein abundance % Change (mean ± sd) (5 μM LA-419 vs control, Intron 4 c/c, n=1): −5.66 (0) %
eNOS protein abundance % Change (mean ± sd) (5 μM LA-419 vs control, Race Asian, n=1): −17.56 (0) %
eNOS protein abundance % Change (mean ± sd) (5 μM LA-419 vs control, Race Black, n=12): −5.95 (6.82) %
eNOS protein abundance % Change (mean ± sd) (5 μM LA-419 vs control, Race Caucasian, n=26): 2.50 (6.89) %
eNOS protein abundance % Change (mean ± sd) (5 μM LA-419 vs control, Race Hispanic, n=6): −1.16 (4.99) %
eNOS protein abundance % Change (mean ± sd) (5 μM LA-419 vs control, Race Not Reported, n=2): −4.62 (0.81) %
eNOS protein abundance % Change (mean ± sd) (5 μM LA-419 vs control, T-786C C/C, n=4): −6.82 (6.09) %
eNOS protein abundance % Change (mean ± sd) (5 μM LA-419 vs control, T-786C T/C, n=23): −0.37 (9.0) %
eNOS protein abundance % Change (mean ± sd) (5 μM LA-419 vs control, T-786C T/T, n=22): −0.64 (5.88) %
Fold difference eNOS protein abundance (mean ± sd) (Combination of all G894T + T-786C genotypes but G/G + T/T, n=31): 0.99 (0.09)
Fold difference eNOS protein abundance (mean ± sd) (Combination of all G894T + T-786C genotypes but T/T + C/C, n=46): 0.99 (0.08)
Fold difference eNOS protein abundance (mean ± sd) (G894T + T-786C G/G + T/C, n=8): 0.98 (0.12)
Fold difference eNOS protein abundance (mean ± sd) (G894T + T-786C G/G + T/T, n=18): 0.99 (0.06)
Fold difference eNOS protein abundance (mean ± sd) (G894T + T-786C G/T + C/C, n=1): 0.88 (0)
Fold difference eNOS protein abundance (mean ± sd) (G894T + T-786C G/T + T/C, n=13): 1.00 (0.07)
Fold difference eNOS protein abundance (mean ± sd) (G894T + T-786C G/T + T/T, n=4): 1.00 (0.08)
Fold difference eNOS protein abundance (mean ± sd) (G894T + T-786C T/T + C/C, n=3): 0.95 (0.06)
Fold difference eNOS protein abundance (mean ± sd) (G894T + T-786C T/T + T/C, n=2): 1.04 (0.01)
Fold difference eNOS protein abundance (mean ± sd) (G894T G/G & G/T, n=44): 0.99 (0.08)
Fold difference eNOS protein abundance (mean ± sd) (G894T G/G, n=26): 1.00 (0.08) and 0.99 (0.08)
Fold difference eNOS protein abundance (mean ± sd) (G894T G/T & T/T, n=23): 0.99 (0.07)
Fold difference eNOS protein abundance (mean ± sd) (G894T G/T, n=18): 0.99 (0.08)
Fold difference eNOS protein abundance (mean ± sd) (G894T T/T, n=5): 0.98 (0.07)
Fold difference eNOS protein abundance (mean ± sd) (Intron 4 a/a, n=3): 1.01 (0.11)
